Legend:
β-glucuronidase [1] = biological target: T1, β-glucuronidase (Escherichia coli, UniProt P05804); assay: Precipitate formed by substrate upon reaction with enzyme; type: biochemical
T1 construct: E. coli produces β-galactosidase, but, unlike general (other) coliforms, also produces β-glucuronidase; endogenous in cells; host or cells: Escherichia coli colonies growing in the test medium
Source text: The β-glucuronidase substrates and compounds described herein as “glucuronides” include carboxylate salts formed by reacting a suitable base with the glucuronic carboxyl group. Suitable bases include alkali metal or alkaline earth metal hydroxides or carbonates, for example, sodium hydroxide, potassium hydroxide, calcium hydroxide, magnesium hydroxide, and corresponding carbonates; and nitrogen bases such as ammonia and alkylamines such as trimethylamine, triethylamine and cyclohexylamine.

coliforms = assay: Enzyme inducer added to medium; type: cell-based; details: approximately 25 mg/liter of medium; some species of coliforms
Source text: It is possible that the enzyme production of the general coliforms may be enhanced by the addition to the medium formulations of very small amounts of substances known as enzyme inducers. The specific inducer for β-galactosidase is available and is known chemically as isopropyl-β-D-thiogalactopyranoside.

β-glucuronidase [2] = biological target: T1, β-glucuronidase; details: Watkins et al. 1988; cited from earlier work
Staphylococcus aureus = assay: Colony colour test of chromogenic substrate in medium (Example 1); type: cell-based
Source text: (§1) 6-Chloroindolyl-β-D-galactoside and 5-bromo-4-chloro-3-indolyl-β-D-glucuronide (X-gluc) were each tested separately with 17 different bacterial species including β-galactosidase producing microorganisms, β-glucuronidase producing microorganisms, and microorganisms which produce neither enzyme.

Sarcina lutea = assay: as above; type: cell-based
Source text: as §1

Serratia marcescens = assay: as above; type: cell-based
Source text: as §1

Bacillus megaterium = assay: as above; type: cell-based
Source text: as §1

Enterobacter aerogenes = assay: as above; type: cell-based
Source text: as §1

[3] = system: Staphylococcus epidermidis; assay: as above; type: cell-based
Source text: as §1

Klebsiella pneumoniae = assay: as above; type: cell-based
Source text: as §1

[4] = as above; type: cell-based; details: Staphylococcus faecalis
Source text: as §1

Proteus vulgaris = assay: as above; type: cell-based
Source text: as §1

Pseudomonas aeruginosa = assay: as above; type: cell-based
Source text: as §1

Enterobacter cloacae = assay: as above; type: cell-based
Source text: as §1

[5] = system: Acinetobacter calcoaceticus; assay: as above; type: cell-based
Source text: as §1

Citrobacter freundii = assay: as above; type: cell-based
Source text: as §1

Bacillus subtilus = assay: as above; type: cell-based
Source text: as §1

Bacillus cereus = assay: as above; type: cell-based
Source text: as §1

Escherichia coli = assay: as above; type: cell-based; details: for colour of colonies grown in medium containing the substrate: E. coli, substrates tested separately
Source text: as §1

Salmonella typhimurium = assay: as above; type: cell-based
Source text: as §1

β-galactosidase [6] = system: β-galactosidase
Source text: The chromogenic β-galactosidase substrate is a β-galactoside comprising galactose joined by β-linkage to a substituent that forms an insoluble precipitate of a first color when liberated by the action of β-galactosidase on the substrate.

β-galactosidase [7] = details: known test compound; cited from earlier work

T1 sequence (P05804 whole entry): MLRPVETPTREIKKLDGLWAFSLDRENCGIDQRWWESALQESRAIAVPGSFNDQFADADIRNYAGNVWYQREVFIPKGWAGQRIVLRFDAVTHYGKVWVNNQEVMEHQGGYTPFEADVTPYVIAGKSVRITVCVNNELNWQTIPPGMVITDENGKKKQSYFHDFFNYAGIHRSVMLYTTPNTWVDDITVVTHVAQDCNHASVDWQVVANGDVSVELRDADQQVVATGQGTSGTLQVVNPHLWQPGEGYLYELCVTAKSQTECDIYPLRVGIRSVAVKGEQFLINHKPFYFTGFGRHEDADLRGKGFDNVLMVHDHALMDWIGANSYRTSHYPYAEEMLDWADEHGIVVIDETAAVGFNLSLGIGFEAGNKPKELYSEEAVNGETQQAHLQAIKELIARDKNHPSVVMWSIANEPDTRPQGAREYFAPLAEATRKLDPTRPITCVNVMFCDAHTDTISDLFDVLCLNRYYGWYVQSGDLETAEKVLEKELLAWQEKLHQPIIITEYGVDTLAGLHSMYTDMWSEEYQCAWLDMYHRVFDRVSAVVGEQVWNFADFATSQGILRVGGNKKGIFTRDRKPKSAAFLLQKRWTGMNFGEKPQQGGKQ

## O=C(O)[C@H]1O[C@@H](Oc2c[nH]c3cc(Cl)ccc23)[C@H](O)[C@@H](O)[C@@H]1O [6-chloroindolyl-β-D-glucuronide]
β-glucuronidase [1]
  precipitate formed when reacted upon by β-glucuronidase: insoluble magenta precipitate

## CC(C)S[C@@H]1O[C@H](CO)[C@H](O)[C@H](O)[C@H]1O [isopropyl-β-D-thiogalactopyranoside]
coliforms
  effect on speed of enzyme (β-galactosidase) production: positive and noticeable effect on the speed of enzyme production

## O=C(O)[C@H]1O[C@@H](Oc2c[nH]c3ccc(Br)c(Cl)c23)[C@H](O)[C@@H](O)[C@@H]1O [X-gluc, 5-bromo-4-chloro-3-indolyl-β-D-glucuronide, reference compound]
β-glucuronidase [2]
  precipitate formed when acted on by β-glucuronidase: insoluble indigo blue precipitate
Staphylococcus aureus
  coloured colonies in X-gluc medium: −
Sarcina lutea
  coloured colonies in X-gluc medium: −
Serratia marcescens
  coloured colonies in X-gluc medium: −
Bacillus megaterium
  coloured colonies in X-gluc medium: −
Enterobacter aerogenes
  coloured colonies in X-gluc medium: −
[3]
  coloured colonies in X-gluc medium: −
Klebsiella pneumoniae
  coloured colonies in X-gluc medium: −
[4]
  coloured colonies in X-gluc medium: −
Proteus vulgaris
  coloured colonies in X-gluc medium: −
Pseudomonas aeruginosa
  coloured colonies in X-gluc medium: −
Enterobacter cloacae
  coloured colonies in X-gluc medium: −
[5]
  coloured colonies in X-gluc medium: −
Citrobacter freundii
  coloured colonies in X-gluc medium: −
Bacillus subtilus
  coloured colonies in X-gluc medium: −
Bacillus cereus
  coloured colonies in X-gluc medium: −
Escherichia coli
  colour of colonies grown in medium containing the substrate: indigo blue colonies
Escherichia coli; Escherichia coli
  coloured colonies in X-gluc medium: +
Salmonella typhimurium
  coloured colonies in X-gluc medium: −

## OC[C@H]1O[C@@H](Oc2c[nH]c3cc(Cl)ccc23)[C@H](O)[C@@H](O)[C@H]1O [6-chloroindolyl-β-D-galactoside]
β-galactosidase [6]
  precipitate formed when reacted upon by β-galactosidase: insoluble magenta precipitate
Staphylococcus aureus
  coloured colonies in medium with 6-chloroindolyl-β-D-galactoside: −
Sarcina lutea
  coloured colonies in medium with 6-chloroindolyl-β-D-galactoside: −
Serratia marcescens
  coloured colonies in medium with 6-chloroindolyl-β-D-galactoside: −
Bacillus megaterium
  coloured colonies in medium with 6-chloroindolyl-β-D-galactoside: −
Enterobacter aerogenes
  colour of colonies grown in medium containing the substrate: magenta colonies
  coloured colonies in medium with 6-chloroindolyl-β-D-galactoside: +
[3]
  coloured colonies in medium with 6-chloroindolyl-β-D-galactoside: −
Klebsiella pneumoniae
  colour of colonies grown in medium containing the substrate: magenta colonies
  coloured colonies in medium with 6-chloroindolyl-β-D-galactoside: +
[4]
  coloured colonies in medium with 6-chloroindolyl-β-D-galactoside: −
Proteus vulgaris
  coloured colonies in medium with 6-chloroindolyl-β-D-galactoside: −
Pseudomonas aeruginosa
  coloured colonies in medium with 6-chloroindolyl-β-D-galactoside: −
Enterobacter cloacae
  colour of colonies grown in medium containing the substrate: magenta colonies
  coloured colonies in medium with 6-chloroindolyl-β-D-galactoside: +
[5]
  coloured colonies in medium with 6-chloroindolyl-β-D-galactoside: −
Citrobacter freundii
  colour of colonies grown in medium containing the substrate: magenta colonies
  coloured colonies in medium with 6-chloroindolyl-β-D-galactoside: +
Bacillus subtilus
  coloured colonies in medium with 6-chloroindolyl-β-D-galactoside: −
Bacillus cereus
  coloured colonies in medium with 6-chloroindolyl-β-D-galactoside: −
Escherichia coli
  colour of colonies grown in medium containing the substrate: magenta colonies
Escherichia coli; Escherichia coli
  coloured colonies in medium with 6-chloroindolyl-β-D-galactoside: +
Salmonella typhimurium
  coloured colonies in medium with 6-chloroindolyl-β-D-galactoside: −

## OC[C@H]1O[C@@H](Oc2c[nH]c3ccc(Br)c(Cl)c23)[C@H](O)[C@@H](O)[C@H]1O [X-gal, 5-bromo-4-chloro-3-indolyl-β-D-galactopyranoside]
β-galactosidase [7]
  precipitate formed when acted on by β-galactosidase: insoluble indigo blue precipitate

Source: patent publication US6699685B1, “Method, test media and chromogenic compounds for identifying and differentiating general coliforms and escherichia coli bacteria” (RCR Scientific, Inc., priority 1990, dated 2004)
